Assay results as given in publication PMC3996151, “Safety and pharmacological characterization of the molecular tweezer CLR01 – a broad-spectrum inhibitor of amyloid proteins’ toxicity” (BMC Pharmacology & Toxicology, 2014).
Marks after values point to notes of the source that are not given here.

What was measured:
transthyretin = tested on: transthyretin; parameters: method as in PMID 24459092; details: peripheral administration, 1.2 mg/kg/day; cited from earlier work
C57BL/6J mice = test: Chronic toxicity: daily IP injection for 30 days, behaviour, histopathology and serum chemistry; assay type: in vivo, mouse; details: for Alanine aminotransferase / Albumin / Alkaline phosphatase / Aspartate aminotransferase / Blood urea nitrogen / Cholesterol / Creatinine / Glucose / Lactate dehydrogenase / Total bilirubin / Total protein: serum, 2-m old WT mice, chronic, 30 day, mean
Experimental: For acute-toxicity studies, 2-m old C57BL/6J mice were administered saline-vehicle, 10 mg/kg, or 100 mg/kg CLR01 by a single intraperitoneal (IP) injection. The mice were sacrificed 24-h after the injection. For chronic toxicity studies, 2-m old C57BL/6J mice were administered saline-vehicle, 3 mg/kg, or 10 mg/kg CLR01 by daily IP injection for 30 days. Acute-study mice were visually monitored for 1 h after injection and then every 50 min for 10 min over the first 6 h of the experiment for changes in activity and behavior. The mice also were monitored every 110 min for 10 min during the last 6 h of the experiment until they were sacrificed. Chronic-study mice were monitored for 1 h after injection and then 3 times a day for 10 min each, every day of the first week. During that week there were no appreciable changes in the behavior, appearance, or weight of the mice. Therefore, monitoring was reduced to twice a day during the remainder of the experiment. On all occasions, the mice were monitored for any signs of severe toxicity, including bruising or bleeding, pale mucous membranes or extremities, diarrhea, dehydration, neurological signs, such as difficulty ambulating or paralysis, tachypnea or dyspnea, or abdominal distension.
Following the treatment, mice were anesthetized with pentobarbital and blood was collected by cardiac puncture and placed in tubes containing a clot activator for serum separation (Capiject T-MG tubes, Terumo Medical Products, Somerset, NJ). Then, the lungs were filled through the trachea with 4% paraformaldehyde to prevent collapse, and tissues (brain, heart-lung, liver, kidney, and spleen) were collected and fixed for 72 h in 4% paraformaldehyde at a ratio of ~1:10 tissue:fixative (v/v). Tissues then were transferred into a 70%-ethanol solution and transferred to the UCLA Mouse Pathology Core for paraffin embedding, sectioning, and tissue histopathology analysis. Serum was analyzed by the UCLA Division of Laboratory Animal Medicine (DLAM) Animal Serology & Molecular Diagnostic Laboratory for an 11-panel serum chemical analysis using the ACE Alera Clinical Chemistry system (Alfa Wassermann Diagnostic Technologies, West Caldwell, NJ). The panel included: alanine aminotransferase, aspartate aminotransferase, albumin, alkaline phosphatase, creatinine, total bilirubin, lactate dehydrogenase, blood urea nitrogen, cholesterol, total protein, and glucose.
If CLR01 indeed operates by a process-specific mechanism and remodels the abnormal aggregation of amyloidogenic proteins at substantially lower concentrations than concentrations that would perturb normal physiological processes, one would expect the compound to have a high therapeutic index. To calculate the therapeutic index, a lethal dose must be reached. […] The next rational step was to test the safety margin of CLR01 in vivo. Based on the in vitro and cell culture data, we expected that 100 mg/kg would be lethal to mice and therefore used it as the highest dose in our safety-evaluation experiments. We assessed the safety of CLR01 in 2-m old, male, WT mice either 24 h following a single IP injection of 10 or 100 mg/kg (acute administration) or after daily IP injection of 3 or 10 mg/kg for 30 days (chronic administration). Following euthanasia, serum was collected for chemical analysis and tissues were harvested for histopathology evaluation.

[1] = daily IP 3 or 10 mg/kg for 30 days

For `O=P(O)(O)Oc1c2c(c(OP(=O)(O)O)c3c1C1CC3c3cc4c(cc31)C1CC4c3ccccc31)C1CC2c2cc3c(cc21)C1CC3c2ccccc21` [CLR01], the “Effect on transthyretin pathology” value (transthyretin) is given as “significant decrease in transthyretin deposition”, the “Chronically administered dose without toxicity relative to the efficacious dose of 40 μg/kg/day” value (C57BL/6J mice; 10 mg/kg/day) is given as 250 times and the Liver histopathology (C57BL/6J mice; daily IP 3 mg/kg for 30 days, a few mice, judged not pathogenic and unlikely related to treatment) is given as “mild-to-moderate multifocal extramedullary hematopoiesis in the liver”. For the same molecule, the Pancreas finding (C57BL/6J mice; daily IP 3 mg/kg for 30 days, two mice, unlikely related to treatment) was “Mild pancreatitis”, the “Reduction in blood cholesterol compared to the control group” value (C57BL/6J mice; daily IP 10 mg/kg for 30 days) was ~ 40% and the Tissue histopathology (C57BL/6J mice; daily IP 10 mg/kg for 30 days) was “no signs of tissue pathology or liver necrosis”. For the same molecule, the “Behavior (levels and type of activity and grooming)” value (C57BL/6J mice; [1]) was “behaved indistinguishably from control mice”, the “Histopathology of heart, lung, spleen and brain” value (C57BL/6J mice; [1]) was “indistinguishable from vehicle-treated mice” and the Alanine aminotransferase (C57BL/6J mice; daily IP dose 3 mg/kg, N = 10) was 43.1 U/L. The Albumin (C57BL/6J mice; daily IP dose 3 mg/kg, N = 10) was 2.8 g/dL, the Alkaline phosphatase (C57BL/6J mice; daily IP dose 3 mg/kg, N = 10) was 104.4 U/L and the Aspartate aminotransferase (C57BL/6J mice; daily IP dose 3 mg/kg, N = 10) was 150.9 U/L. For the same molecule, the Blood urea nitrogen (C57BL/6J mice; daily IP dose 3 mg/kg, N = 10) was 22.3 mg/dL, the Cholesterol (C57BL/6J mice; daily IP dose 3 mg/kg, N = 10) was 80.9 mg/dL and the Creatinine (C57BL/6J mice; daily IP dose 3 mg/kg, N = 10) was 0.3 mg/dL. The Glucose (C57BL/6J mice; daily IP dose 3 mg/kg, N = 10) was 256.7 mg/dL, the Lactate dehydrogenase (C57BL/6J mice; daily IP dose 3 mg/kg, N = 10) was 507.0 U/L and the Total bilirubin (C57BL/6J mice; daily IP dose 3 mg/kg, N = 10) was 0.2 mg/dL. It also gave a Total protein (C57BL/6J mice; daily IP dose 3 mg/kg, N = 10) of 4.7 g/dL, an Alanine aminotransferase (C57BL/6J mice; daily IP dose 10 mg/kg, N = 9) of 38.4 U/L and an Albumin (C57BL/6J mice; daily IP dose 10 mg/kg, N = 9) of 2.7 g/dL. The Alkaline phosphatase (C57BL/6J mice; daily IP dose 10 mg/kg, N = 9) was 106.1 U/L, the Aspartate aminotransferase (C57BL/6J mice; daily IP dose 10 mg/kg, N = 9) was 236.2 U/L and the Blood urea nitrogen (C57BL/6J mice; daily IP dose 10 mg/kg, N = 9) was 24.1 mg/dL. The Creatinine (C57BL/6J mice; daily IP dose 10 mg/kg, N = 9) was 0.2 mg/dL, the Glucose (C57BL/6J mice; daily IP dose 10 mg/kg, N = 9) was 233.9 mg/dL and the Lactate dehydrogenase (C57BL/6J mice; daily IP dose 10 mg/kg, N = 9) was 483.0 U/L. The Total bilirubin (C57BL/6J mice; daily IP dose 10 mg/kg, N = 9) was 0.2 mg/dL, the Total protein (C57BL/6J mice; daily IP dose 10 mg/kg, N = 9) was 4.6 g/dL and the Cholesterol (C57BL/6J mice; daily IP dose 10 mg/kg, N = 9, p < 0.01 vs control) was 56.8** mg/dL.
